Series [1] deals with bronchoconstriction in guinea pigs due to an intravenous administration of synthetic leukotriene D4 (LTD4). Kind of series: Inhibition of LTD4-induced bronchoconstriction in guinea pigs, oral dosing (Konzett-Rossler method). Type of series: in vivo, guinea pig (Hartley strain). To be noted: Cavia porcellus, 1 h, guinea pig, p.o. one hour before LTD4 10 μg/kg i.v., inhibition of overflow volume 30 seconds after LTD4, read-out: ID50 (p.o.) (50% inhibitory dose). How it is done:
Guinea pigs of Hartley strain, both male and female, with body weights about 400 g were assigned to groups of 6 to 10 individuals, and the bronchoconstriction due to LTD4 was measured according to the method of Konzett-Rossler [Konzett, H. and Rossler, R.: Naunyn-Schmiedebergs Archiv fur Experimentelle Pathologie und Pharmakologie 195, 71-74 (1940)]. Each guinea pig was fixed in supine position under urethane anesthesia (1.5 g/kg, intraperitoneal) and the trachea was incised and connected to an artificial respiration apparatus, Rodent Respirator Model 680 [Harvard Apparatus Company, U.S.A.] via a cannula. The branch tube of this tracheal cannula was connected to Bronchospasm Transducer Model 7020 [Ugobasil Biological Researach Apparatus, Italy]. Under the conditions of 4 to 7 ml of air per stroke, 70 strokes per minute and a lung loading pressure of 10 cmH2 O, the volume of overflowing air was recorded on Rectigraph-8S (San-ei Sokki Co. Ltd., Japan) via a transducer. After administration of gallamine.triethiodide (1 mg/kg, i.v.), a solution of LTD4 in physiological saline (10 μg/kg) was intravenously administered and the bronchoconstriction elicited thereby was recorded for 15 minutes. […]
*^1 ID50 (50% inhibitory dose): Each value was calculated from […]

In the next series the test system is mice. Kind of series: Acute oral toxicity in mice. The conditions noted are these: male mice. Type of series: in vivo, mouse (Jcl:ICR strain). As to the method:
Five 5-week-old male mice per group, of Jcl:ICR strain, weighing about 30 g each, were used. Compound (I')-1 was suspended in a 5% solution of gum arabic and administered orally at the level of 0.2 ml per 10 grams body weight.

`CCCc1c(OCCCOc2ccc(C(=O)O)cc2Br)ccc(C(C)=O)c1OC(C)=O` [Compound (I')-1, 4-[3-(3-acetoxy-4-acetyl-2-propylphenoxy)propoxy]-3-bromobenzoic acid]: the ED50 in series [1] worked out at 47 µmol/kg. Besides, the autopsy findings entry with mice (oral 500 mg/kg, autopsy after 7 days) is listed as “did not reveal any abnormalities”. Moreover, the “symptoms attributable to the compound” value in the series on mice (single oral dose 500 mg/kg) is on record as “no symptoms that could be attributable to compound (I')-1”.

For the origin of these results see patent US4714774A, “Benzoic acid derivatives and their production” (Takeda Chemical Industries, Ltd., priority 1984, dated 1987).
